Test results from patent US6916802B2, “Amino ceramide-like compounds and therapeutic methods of use” (Genzyme Corporation, priority 2002, dated 2005).
Where “and” joins values, the source holds several entries; their conditions need not be identical. Equal entries are not always repeated. Marks after values point to notes of the source that are not given here.

Assays:
[1] = system: 9L brain gliosarcoma cells; test: Tumor cell growth in vitro (sulforhodamine B), 9L; format: cell-based
Protocol: (§1) Growth of cell lines. Comparisons of different inhibitors with regard to suppression of human cancer cell growth were made by the University of Michigan Cancer Center in vitro Drug Evaluation Core Laboratory. MCF-7 breast carcinoma cells, HT-29 colon adenocarcinoma cells, H-460 lung large cell carcinoma cells, and 9L brain gliosarcoma cells were grown in RPMI 1640 medium with 5% fetal bovine serum, 2 mM glutamine, 50 units/ml of penicillin, […] of streptomycin, and 0.1 mg/ml of neomycin. UMSCC-10A head and neck squamous carcinoma cells were grown in minimal essential medium with Earle salts and the same supplements. Medium components were from Sigma Chemical Co. Cells were plated in 96-well microtiter plates (1000 cells/well for H-460 and 9L cells, and 2000 cells/well for the other lines), and the test compounds were added 1 day later. The stock inhibitor solutions, 2 mM in 2 mM BSA, were diluted with different amounts of additional 2 mM BSA, then each solution was diluted 500-fold with growth medium to obtain the final concentrations indicated in the Figures and Tables.
(§2) Five days after plating the H-460 and 9L cells, or 6 days for the other lines, cell growth was evaluated by staining the adhering cells with sulforhodamine B and measuring the absorbance at 520 nm (Skehan, P. et al., “New Colorimetric Cytotoxicity Assay for Anticancer-Drug Screening,” J. Natl. Cancer Inst., 82:1107-1112 (1990)). The absorbance of the treated cultures is reported as percent of that of control cultures, to provide an estimate of the fraction of the cells that survived, or of inhibition of growth rate.

[2] = system: MCF-7 breast carcinoma cells; test: Tumor cell growth in vitro (sulforhodamine B), MCF-7; format: cell-based, human; conditions: Homo sapiens, MCF7, rounded off to one digit, read-out: Inhibition of tumor cell growth in vitro, IC50
Protocol: as §1, §2

[3] = system: GlcCer synthase of MDCK cell homogenates; test: Inhibition of ceramide glucosyltransferase (GlcCer synthase) of MDCK cell homogenates; format: biochemical, canine; conditions: triplicate ± SD, samples partly isomer mixtures
Protocol: Assay of sphingolipid enzymes. The inhibitors were evaluated for their effectiveness against the GlcCer synthase of MDCK cell homogenates by incubation in a thermostatted ultrasonic bath (Radin N. S. et al., “Ultrasonic Baths as Substitutes for Shaking Incubator Baths,” Enzyme, 45:67-70 (1991)) with octanoyl sphingosine and uridinediphospho[^3H]glucose (Shukla, G. S. et al., “Glucosylceramide Synthase of Mouse Kidney: Further Characterization and Improved Assay Method,” Arch. Biochem. Biophys., 283:372-378 (1990)). The lipoidal substrate (85 μg) was added in liposomes made from 0.57 mg dioleoylphosphatidylcholine and 0.1 mg of Na sulfatide. Confluent cells were washed, then homogenized with a micro-tip sonicator at 0° C. for 3×30 sec; ˜0.2 mg of protein was used in each assay tube. In the case of the aromatic inhibitors, the test compound was simply evaporated to dryness from solution in the incubation tube. […] The aliphatic inhibitors, which appeared to be less soluble in water, were added as part of the substrate liposomes.

[4] = system: H-460 lung large cell carcinoma cells; test: Tumor cell growth in vitro (sulforhodamine B), H-460; format: cell-based, human; conditions: Homo sapiens, NCI-H460, rounded off to one digit, read-out: Inhibition of tumor cell growth in vitro, IC50
Protocol: as §1, §2

[5] = system: HT-29 colon adenocarcinoma cells; test: Tumor cell growth in vitro (sulforhodamine B), HT-29; format: cell-based, human; conditions: Homo sapiens, rounded off to one digit, read-out: Inhibition of tumor cell growth in vitro, IC50
Protocol: as §1, §2

[6] = system: UMSCC-10A head and neck squamous carcinoma cells; test: Tumor cell growth in vitro (sulforhodamine B), UMSCC-10A; format: cell-based, human; conditions: Homo sapiens, rounded off to one digit, read-out: Inhibition of tumor cell growth in vitro, IC50
Protocol: as §1, §2

[7] = biological target: T1, 1-O-acylceramide synthase (Canis lupus familiaris, UniProt Q6XPZ3); test: 1-O-acylceramide synthase (transacylase) assay; format: biochemical; conditions: D-threo enantiomers, FIG. 12
T1 construct: the 1-O-acylceramide synthase assayed in the cellular homogenates; endogenous in cells; host or cells: cellular homogenates (MDCK, from context)
T1 sequence (Q6XPZ3 32-408): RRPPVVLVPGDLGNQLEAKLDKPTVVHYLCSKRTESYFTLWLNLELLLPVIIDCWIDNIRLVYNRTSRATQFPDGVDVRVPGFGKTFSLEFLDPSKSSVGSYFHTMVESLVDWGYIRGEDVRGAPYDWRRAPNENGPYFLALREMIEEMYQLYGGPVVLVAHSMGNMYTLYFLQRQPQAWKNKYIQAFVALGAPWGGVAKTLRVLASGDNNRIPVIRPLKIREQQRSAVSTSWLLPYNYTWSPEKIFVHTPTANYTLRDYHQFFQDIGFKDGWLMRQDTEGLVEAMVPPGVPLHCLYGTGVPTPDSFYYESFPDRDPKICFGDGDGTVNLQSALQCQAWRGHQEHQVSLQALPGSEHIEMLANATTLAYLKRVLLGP
Source text: Distinguishing Between Inhibition of GlcCer Synthase and 1-O-acylceramide Synthase Inhibition. […] An alternative pathway for ceramide metabolism was subsequently identified, the acylation of ceramide at the 1-hydroxyl position, which was blocked by both threo and erythro diastereomers of PDMP. The specificities of D-threo-P4, D-threo-3′,4′-ethylenedioxy-P4, and D-threo-(4′-hydroxy)-P4 for GlcCer synthase were studied by assaying the transacylase.

GlcCer synthase = biological target: T2, GlcCer synthase (Canis lupus familiaris, UniProt A0A8I3MXG6); test: Glycosylceramide synthase activity, MDCK cell homogenate (Specific Example 2); format: biochemical, canine
T2 sequence (A0A8I3MXG6 1-394): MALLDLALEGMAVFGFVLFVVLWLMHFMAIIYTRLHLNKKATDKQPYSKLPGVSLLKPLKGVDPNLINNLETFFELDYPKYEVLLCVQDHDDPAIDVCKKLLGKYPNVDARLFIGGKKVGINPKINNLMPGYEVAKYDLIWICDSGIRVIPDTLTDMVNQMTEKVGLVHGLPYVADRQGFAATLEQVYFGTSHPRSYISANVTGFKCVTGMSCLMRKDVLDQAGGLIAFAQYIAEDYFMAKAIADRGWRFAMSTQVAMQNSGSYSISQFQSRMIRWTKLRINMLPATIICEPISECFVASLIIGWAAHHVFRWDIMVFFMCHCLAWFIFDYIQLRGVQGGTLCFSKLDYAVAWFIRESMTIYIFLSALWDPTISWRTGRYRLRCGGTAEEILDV
Protocol: Glycosylceramide synthase activity. The enzyme activity was measured by the method previously described in Skukla, G. et al., Biochim. Biophys. Acta, 1083:101-108 (1991). MDCK cell homogenate (120 μg of protein) was incubated with uridinediphosphate [^3H]glucose (100,000 cpm) and liposomes consisting of 85 μg octanoylsphingosine, 570 μg dioleoyphosphatidylcholine and 100 μg sodium sulfatide in 200 μl of reaction mixture and kept for 1 h at 37° C. P4 and P4 derivatives dissolved in dimethyl sulfoxide were dispersed into the reaction mixture after adding liposomes. The final concentration of dimethyl sulfoxide was kept 1% under which the enzyme activity was not at all inhibited.

MDCK cells [8] = test: Cell growth of treated MDCK cells, total protein (Specific Example 2); format: cell-based, canine
Protocol: (§3) Cell culture and lipid extraction. One half million of MDCK cells were seeded into 10 cm style dish containing 8 ml serum free DMEM supplemented medium. Shayman, J. A. et al., J. Biol. Chem., 265:12135-12138 (1990). After 24 h the medium was replaced with 8 ml of the medium containing 0, 11.8, 118 or 1180 nM D-t-P4, D-t-3′,4′-ethylenedioxy-P4 or D-4′-hydroxy)-P4. The GlcCer synthase inhibitors were added into the medium as a one to one complex with delipidated BSA. Abe, A. et al., J. Lipid. Res., 36:611-621 (1995); Abe, A. et al., Biochim. Biophys. Acta, 1299:331-341 (1996). The cells were incubated for 24 h or 48 h with the inhibitors. After the incubation, the cells were washed twice with 8 ml of cold PBS and fixed with 2 ml of cold methanol. The fixed cells were scraped and transferred to a glass tube. Another one ml of methanol was used to recover the remaining cells in the dish.
(§4) Effects of D-threo-P4, D-threo4′-hydroxy-P4 and D-threo-3,4′-ethylenedioxy-P4 on GlcCer Synthesis and Cell Growth. To confirm the cellular specificity of D-threo-3′,4′-ethylenedioxy-P4 and D-threo-(4′-hydroxy)-P4 as compared to D-threo-P4, MDCK cells were treated with different concentrations of the inhibitors. The total protein amount in each sample was determined by the BCA method. In GlcCer analysis, lipid samples and standard lipids were applied to the same HPTLC plate pre-treated with borate and developed in a solvent consisting of C/M/W (63/24/4). The level of GlcCer was estimated from a standard curve obtained using a computerized image scanner. The values were normalized on the basis of the phospholipid content. The results are shown in FIG. 7, wherein each bar is the average values from three dishes, with error bars corresponding to one standard deviation. In the control, the total protein and GlcCer were 414±47.4 μg/dish and 24.3±1.97 ng/nmol phosphate, respectively.

MDCK cells [9] = test: GlcCer, ceramide and diradylglycerol content of treated MDCK cells (Specific Example 2); format: cell-based, canine
Protocol: as §3, with “After 24 h the medium was replaced with 8 ml of the medium containing 0, 11.8, 118 or 1180 nM D-t-P4, D-t-3′,4′-ethylenedioxy-P4 or D-4′-hydroxy)-P4.” left out
Three ml of chloroform was added to the tube and briefly sonicated using a water bath type sonicator. After centrifugation at 800 g for 5 min, the supernatant was transferred into another glass tube. The residues were reextracted with chloroform/methanol (1/1). After the centrifugation, the resultant supernatant was combined with the first one. The residues were air-dried and kept for protein analysis. Adding 0.9% NaCl to the supematant combined, the ratio of chloroform/methanol/aqueous was adjusted to 1/1/1. After centrifugation 800 g for 5 min, the upper layer was discarded. Methanol/water (1/1) with the same amount of volume of the lower layer was used to wash. The resultant lower layer was transferred into a small glass tube and dried down under a stream of nitrogen gas. A part of the lipid was used for lipid phosphate determination. Ames, B. N., Methods Enzymol., 8:115-118 (1966). The remainder was analyzed using HPTLC (Merck).
In order to determine whether inhibition of 1-O-acylceramide synthase was the basis for inhibitor mediated ceramide accumulation, the ceramide and diradylglycerol levels of MDCK cells treated D-threo-P4, D-threo-3′,4′-ethylenedioxy-P4, and D-threo-(4′-hydroxy)-P4 were measured (Table 9). MDCK cells (5×10^5) were seeded into a 10 cm dish and incubated for 24 h. Following the incubation, the cells were treated for 24 or 48 h with or without P4 or the phenyl substitute homologues. Both ceramide and diradylglycerol contents were determined by the method of Preis, J. et al., J. Biol. Chem., 261:8597-8600 (1986). GlcCer content was measured densitometrically by a video camera and use of NIH image 1.49. Significant increases in both ceramide and diradylglycerol occurred only in cells treated with inhibitor concentrations in excess of 1 mM. This was approximately 30-fold lower than the concentration required for inhibition of the 1-O-acylceramide synthase assayed in the cellular homogenates. […] Abe, A. et al., Biochim. Biophys. Acta, 1299:331-341 (1996).
as §4

## CCCCCCCCCCCCCCCC(=O)NC(CN1CCCC1)C(O)c1ccccc1 (racemic) [BML-119, 1-phenyl-2-palmitoylamino-3-pyrrolidino-1-propanol]
[1]; 9L cells, 1 μM inhibitor, read-out: growth, % of control growth
  activity at 1 µM: 71%
[1]; 9L cells, 3 μM inhibitor, read-out: growth, % of control growth
  activity at 3 µM: 3%
[1]; 9L, rounded off to one digit, read-out: Inhibition of tumor cell growth in vitro, IC50
  IC50: 1 µM
[2]
  IC50: 2 µM
[3]; 5 μM inhibitor, 5 µM
  Inhibition at 5 μM: 50% and 51 ± 2.3^e % and 49 ± 0.8^f %
[3]; 80 μM inhibitor, 80 µM
  % Inhibition at 80 μM: 94 ± 1.4^b % and 97 ± 0.1^c % and 96 ± 0.1^d %
[4]
  IC50: 1 µM
[5]
  IC50: 1 µM
[6]
  IC50: 1 µM

## CCCCCCCCCCCCCCCC(=O)N[C@H](CN1CCCC1)[C@H](O)c1ccc(O)cc1 [D-threo-4′-hydroxy-P4, D-t-4′-hydroxy-1-phenyl-2-palmitoylamino-3-pyrrolidino-1-propanol]
[7]
  activity in blocking 1-O-acylceramide synthase: comparable activity
GlcCer synthase
  potency as GlcCer synthase inhibitor, in words: twice as active as the p-methoxy compound
MDCK cells [8]; 1130 nM
  total protein versus untreated cells: significant decrease
MDCK cells [8]; 11.3 or 113 nM
  total protein content versus untreated cells: little difference
MDCK cells [9]; 11.3 nM inhibitor
  GlcCer lost from the cells (depletion): Approximately 66%
MDCK cells [9]; 11.3 nM, 24 h
  Ceramide (pmol/nmol phospholipids): 4.29 ± 0.71 pmol/nmol phospholipids
  Diradylglycerol (pmol/nmol phospholipids): 30.9 ± 2.01 pmol/nmol phospholipids
MDCK cells [9]; 11.3 nM, 48 h
  Ceramide (pmol/nmol phospholipids): 6.70 ± 0.29 pmol/nmol phospholipids
  Diradylglycerol (pmol/nmol phospholipids): 38.4 ± 1.44 pmol/nmol phospholipids
MDCK cells [9]; 113 nM, 24 h
  Ceramide (pmol/nmol phospholipids): 5.09 ± 0.95 pmol/nmol phospholipids
  Diradylglycerol (pmol/nmol phospholipids): 31.5 ± 3.84 pmol/nmol phospholipids
MDCK cells [9]; 113 nM, 48 h
  Ceramide (pmol/nmol phospholipids): 7.47 ± 0.29 pmol/nmol phospholipids
  Diradylglycerol (pmol/nmol phospholipids): 41.5 ± 0.66 pmol/nmol phospholipids
MDCK cells [9]; 1130 nM
  level of ceramide versus untreated cells: two times higher
MDCK cells [9]; 1130 nM, 24 h
  Ceramide (pmol/nmol phospholipids): 7.38 ± 0.13 pmol/nmol phospholipids
  Diradylglycerol (pmol/nmol phospholipids): 38.5 ± 3.84 pmol/nmol phospholipids
MDCK cells [9]; 1130 nM, 48 h
  Ceramide (pmol/nmol phospholipids): 13.4 ± 1.03 pmol/nmol phospholipids
  Diradylglycerol (pmol/nmol phospholipids): 47.2 ± 2.51 pmol/nmol phospholipids

## CCCCCCCCCCCCCCCC(=O)N[C@H](CN1CCCC1)[C@H](O)c1ccc(OC)c(OC)c1 [D-t-3′,4′-dimethoxy-P4]
GlcCer synthase
  potency as GlcCer synthase inhibitor, in words: inferior to these dioxy derivatives
